Literature values in US8618066B1 (priority 2003, dated 2013).
“Also recorded” adds a separate entry of the source. No end group written: not given here.

Test system: Gram+ & Gram− bacteria, fungi, virus, mammalian/cancer cells
Conditions: cited from earlier work

Substance | Activity
AFP1: peptide, source Turnip (QKLCERPSGTWSGVCGNNNACKNQCIN; AFP1; listed as Brassica rapa) | Fungi
Cecropin A: peptide, source Nocutuid moth (RWKVFKKIEKVGRNIRDGVIKAAPAIEVLGQAKAL; Cecropin A; listed as Heliothis virescens) | Gram+ & Gram−, Fungi
Tritrpticin: peptide, source Synthetic (VRRFPWWWPFLRR; Synthetic Tritrpticin) | Gram+ & Gram−, Fungi
SEQ ID No. 36: synthetic antifungal peptide, Table 1 (KRKLRF) | Fungi
FRLKHI [SEQ ID No. 198] | Gram+ & Gram−, Fungi
SEQ ID No. 177: synthetic antifungal peptide, Table 1 (GYFSYPHGNLF; listed as Glomerella cingulata) | Fungi
Spingerin: peptide, source Pseudacanthotermes spiniger (HVDKKVADKVLLLKQLRIMRLLTRL; Pseudacanthotermas spiniger; Spingerin) | Gram+ & Gram−, Fungi
SEQ ID No. 196: synthetic antifungal peptide, Table 1 (WCTWKGQPCW; listed as Fusarium graminearum) | Fungi
Lactoferricin B: peptide, source Bovine (FKCRRWQWRMKKLGAPSITCVRRAF; Lactoferricin B; listed as Bos taurus) | Gram+ & Gram−, Virus, Fungi,
SEQ ID No. 191: synthetic antifungal peptide, Table 1 (WCLFHGEGCW; listed as Cryphonectria parasitica) | Fungi
Neutrophil defensin 1 (HANP-1): peptide, source Golden hamster (VTCFCRRRGCASRERHIGYCRFGNTIYRLCCRR; Neutrophil defensin 1 (HANP-1); listed as Mesocricetus auratus) | Gram+, Fungi
RQRVEELSKFSKKGAAARRRK [Misgurin] | Gram+ & Gram−, Fungi
PN-AMP: peptide, source Japenese morning glory | Gram+, Fungi
Ranatuerin-2CA: peptide, source Green frog (GLFLDTLKGAAKDVAGKLLEGLKCKIAGCKP; Rana clamitans; Ranatuerin-2CA) | Gram+ & Gram−, Fungi
Protegrin 3: peptide, source Pig (RGGGLCYCRRRFCVCVGR; Protegrin 3; listed as Sus scrofa) | Gram+ & Gram−, Virus, Fungi
Neutrophil defensin 3 (HANP-3): peptide, source Golden hamster (VTCFCRRRGCASRERLIGYCRFGNTIYGLCCRR; Neutrophil defensin 3 (HANP-3); listed as Mesocricetus auratus) | Gram+, Fungi
FRLHF [SEQ ID No. 199] | Gram+ & Gram−, Fungi
P-18: antimicrobial peptide, Table 1 (KWKLFKKIPKFLHLAKKF; listed as Penaeus vannamei) | Gram+ & Gram−, Fungi, Cancer
Histatin 5: peptide, source Human (DSHAKRHHGYKRKFHEKHHSHRGY; Histatin 5; listed as Homo sapiens) | Gram+ & Gram−, Fungi

Substance | Activity
Hepcidin 25: peptide, source Human (DTHFPICIFCCGCCHRSKCGMCCKT; Hepcidin 25; listed as Homo sapiens) | Fungi
SEQ ID No. 28: synthetic antifungal peptide, Table 1 (HRF) | Fungi
Histatin 8: antimicrobial peptide, Table 1 (KFHEKHHSHRGY; Histatin 8) | Gram+ & Gram−, Fungi
SEQ ID No. 35: synthetic antifungal peptide, Table 1 (IFKLRF) | Fungi
HNP-3 Defensin: peptide, source Human | Gram+ & Gram−, Virus, Fungi
Pseudin 1: peptide, source Paradoxical frog (GLNTLKKVFQGLHEAIKLINNHVQ; Pseudin 1; listed as Pseudis paradoxa) | Gram+ & Gram−, Fungi
Lingual antimicrobial peptide: peptide, source Bovine (GFTQGVRNSQSCRRNKGICVPIRCPGSMRQIGTCLGAQVKCCRRK; Lingual antimicrobial peptide; listed as Bos taurus) | Gram+ & Gram−, Fungi
MUC7 20- Mer: peptide, source Human (LAHQKPFIRKSYKCLHKRCR; MUC7 20-Mer; listed as Homo sapiens) | Gram+ & Gram−, Fungi
GNCP-1: peptide, source Guinea pig (RRCICTTRTCRFPYRRLGTCIFQNRVYTFCC; GNCP-1; listed as Cavia cutleri) | Gram+ & Gram−, Virus, Fungi
HNP-2 Defensin: peptide, source Human (CYCRIPACIAGERRYGTCIYQGRLWAFCC; HNP-2 Defensin; listed as Homo sapiens) | Gram+ & Gram−, Virus, Fungi
SEQ ID No. 181: synthetic antifungal peptide, Table 1 (YNLEPQGPKLQLWHW) | Fungi
SEQ ID No. 175: synthetic antifungal peptide, Table 1 (WTFRYC) | Fungi
Ranalexin-1CB: peptide, source Gree frog (FLGGLMKAFPAIICAVTKKC; Rana clamitans; Ranalexin-1CB) | Gram+ & Gram−, Fungi
Tracheal antimicrobial peptide: peptide, source Bovine (NPVSCVRNKGICVPIRCPGSMKQIGTCVGRAVKCCRKK; Tracheal antimicrobial peptide; listed as Bos taurus) | Gram+ & Gram−, Fungi
Nigrocin 2: peptide, source Rana nigromaculata (GLLSKVLGVGKKVLCGVSGLC; Nigrocin 2; listed as Rana nigromaculata) | Gram+ & Gram−, Fungi
SEQ ID No. 33: synthetic antifungal peptide, Table 1 (VFKLRF) | Fungi
Gaegurin-1: peptide, source Wrinkled frog (SLFSLIKAGAKFLGKNLLKQGACYAACKASKQC; Gaegurin-1; listed as Rana rugosa) | Gram+ & Gram−, Fungi
MBP-1: peptide, source Maize (RSGRGECRRQCLRRHEGQPWETQECMRRCRRRG; Zea mays; MBP-1) | Gram+ & Gram−, Fungi

Same assay, conditions: classes of organisms/cells the peptide is active against; cited from earlier work

Substance | Activity
Ponericin G!: peptide, source Ponerine ant (GWKDWAKKAGGWLKKKGPGMAKAALKAAMQ; Ponericin G1; listed as Pachycondyla goeldii) | Gram+ & Gram−, Fungi
Dhvar4: peptide, source Synthesis (KRLFKKLLFSLRKY; Synthesis dhvar4) | Gram+ & Gram−, Fungi
Androctonin: peptide, source Androctonus Australis (RSVCRQIKICRRRGGCYYKCTNRPY; listed as Androctonus australis) | Gram+ & Gram−, Fungi
Parabutoporin: peptide, source Scorpion (FKLGSFLKKAWKSKLAKKLRAKGKEMLKDYAKGLLEGGSEEVPGQ; Parabutoporin; listed as Parabuthus schlechteri) | Gram+ & Gram−, Fungi,; also recorded: Mammalian cells
